Test results taken from article PMC7901654, “Bioisosteric Discovery of NPA101.3, a Second-Generation RET/VEGFR2 Inhibitor Optimized for Single-Agent Polypharmacology” (Journal of Medicinal Chemistry, 2020).

What was measured:
Experiment in all cases: KinomeScan panel screen
Format in all cases: binding
[1] = molecular target: T1, RIPK4 (Homo sapiens, UniProt P57078); details: RIPK4, 100 nM; read-out: Percent Control
T1 construct: purchased DiscoveRx KINOMEscan (TRKA and CSF1R IC50 enzymes from Invitrogen)
Method: (§1) In addition, NPA101.3, at a concentration of 100 nM, was subjected to a kinome scan against a 96-kinase panel representing major kinome clusters (Table S2). The compound featured good selectivity, displaying strong binding activity (>90% bound) for only seven additional kinases [CSF1R (colony stimulating factor 1 receptor), FRK (fyn-related Src family tyrosine kinase), HCK (HCK proto-oncogene, Src family tyrosine kinase), LYN (lyn proto-oncogene, Src family tyrosine kinase), MKNK2 (MAPK-interacting serine/threonine kinase 2), TRKA (neurotrophic receptor tyrosine kinase 1), and TRKC (neurotrophic receptor tyrosine kinase 3)] and weak binding (>10–35% bound) for six other kinases (Table S2 and Figure S2). It is important to note that the measurement of binding affinity, which is based on control ligand displacement (Kd), is more sensitive than the in vitro kinase assay. Among the seven kinases with >90% binding, TRKA and CSF1R were selected for an in vitro kinase assay.
(§2) Supplementary Table S2: NPA101.3 KinomeScan Panel screen.
(§3) NPA101.3 was screened at a single concentration of 100 nM. Hits values lower than
(§4) 10% of control were considered strongly positive.
(§5) DiscoveRx Gene Entrez Gene Percent Compound
(§6) Symbol Symbol Control Concentration

[2] = molecular target: T2, PAK1 (Homo sapiens, UniProt Q13153); details: PAK1, 100 nM; read-out: Percent Control
T2 construct: purchased DiscoveRx KINOMEscan (TRKA and CSF1R IC50 enzymes from Invitrogen)
Method: as §1, §2, §3, §4, §5, §6

[3] = molecular target: T3, AKT1 (Homo sapiens, UniProt P31749); details: AKT1, 100 nM; read-out: Percent Control
T3 construct: purchased DiscoveRx KINOMEscan (TRKA and CSF1R IC50 enzymes from Invitrogen)
Method: as §1, §2, §3, §4, §5, §6

[4] = molecular target: T4, TXK (Homo sapiens, UniProt P42681); details: 100 nM, read-out: Percent Control
T4 construct: purchased DiscoverX (outsourced KINOMEscan)
Method: as §1, §2, §3, §4, §5, §6

[5] = molecular target: T5, TAK1 (Homo sapiens, UniProt O43318); details: TAK1, 100 nM; read-out: Percent Control
T5 construct: purchased DiscoveRx KINOMEscan (TRKA and CSF1R IC50 enzymes from Invitrogen)
Method: as §1, §2, §3, §4, §5, §6

[6] = molecular target: T6, ULK2 (Homo sapiens, UniProt Q8IYT8); details: ULK2, 100 nM; read-out: Percent Control
T6 construct: purchased DiscoverX (outsourced KINOMEscan)
Method: as §1, §2, §3, §4, §5, §6

[7] = molecular target: T7, DYRK1A (Homo sapiens, UniProt Q13627); details: 100 nM, read-out: Percent Control
T7 construct: purchased DiscoveRx KINOMEscan (TRKA and CSF1R IC50 enzymes from Invitrogen)
Method: as §1, §2, §3, §4, §5, §6

[8] = molecular target: T8, SLK (Homo sapiens, UniProt Q9H2G2); details: 100 nM, read-out: Percent Control
T8 construct: purchased DiscoveRx KINOMEscan (TRKA and CSF1R IC50 enzymes from Invitrogen)
Method: as §1, §2, §3, §4, §5, §6

[9] = molecular target: T9, S6K1 (Homo sapiens, UniProt P23443); details: S6K1, 100 nM; read-out: Percent Control
T9 construct: purchased DiscoveRx KINOMEscan (TRKA and CSF1R IC50 enzymes from Invitrogen)
Method: as §1, §2, §3, §4, §5, §6

[10] = molecular target: T10, ROCK2 (Homo sapiens, UniProt O75116); details: ROCK2, 100 nM; read-out: Percent Control
T10 construct: purchased DiscoveRx KINOMEscan (TRKA and CSF1R IC50 enzymes from Invitrogen)
Method: as §1, §2, §3, §4, §5, §6

[11] = molecular target: T11, FYN (Homo sapiens, UniProt P06241); details: 100 nM, read-out: Percent Control
T11 construct: purchased DiscoveRx KINOMEscan (TRKA and CSF1R IC50 enzymes from Invitrogen)
Method: as §1, §2, §3, §4, §5, §6

[12] = molecular target: T12, TRKA (Homo sapiens, UniProt P04629); details: 100 nM
T12 construct: purchased Invitrogen
Method: as §1, §2, §3, §4, §5, §6

[13] = molecular target: T13, RPS6KA4(Kin.Dom.2-C-terminal) (Homo sapiens, UniProt O75676); details: 100 nM, read-out: Percent Control
T13 construct: RPS6KA4(Kin.Dom.2-C-terminal); purchased DiscoveRx KINOMEscan (TRKA and CSF1R IC50 enzymes from Invitrogen)
Method: as §1, §2, §3, §4, §5, §6

[14] = molecular target: T14, IKK-beta (Homo sapiens, UniProt O14920); details: 100 nM, read-out: Percent Control
T14 construct: purchased DiscoveRx KINOMEscan (TRKA and CSF1R IC50 enzymes from Invitrogen)
Method: as §1, §2, §3, §4, §5, §6

[15] = molecular target: T15, PCTK1 (Homo sapiens, UniProt Q00536); details: PCTK1, 100 nM; read-out: Percent Control
T15 construct: purchased DiscoveRx KINOMEscan (TRKA and CSF1R IC50 enzymes from Invitrogen)
Method: as §1, §2, §3, §4, §5, §6

[16] = molecular target: T16, NDR1 (Homo sapiens, UniProt Q15208); details: NDR1, 100 nM; read-out: Percent Control
T16 construct: purchased DiscoveRx KINOMEscan (TRKA and CSF1R IC50 enzymes from Invitrogen)
Method: as §1, §2, §3, §4, §5, §6

[17] = molecular target: T17, ERK1 (Homo sapiens, UniProt P27361); details: ERK1, 100 nM; read-out: Percent Control
T17 construct: purchased DiscoveRx KINOMEscan (TRKA and CSF1R IC50 enzymes from Invitrogen)
Method: as §1, §2, §3, §4, §5, §6

[18] = molecular target: T18, PYK2 (Homo sapiens, UniProt Q14289); details: PYK2, 100 nM; read-out: Percent Control
T18 construct: purchased DiscoveRx KINOMEscan (TRKA and CSF1R IC50 enzymes from Invitrogen)
Method: as §1, §2, §3, §4, §5, §6

[19] = molecular target: T19, IRAK4 (Homo sapiens, UniProt Q9NWZ3); details: IRAK4, 100 nM; read-out: Percent Control
T19 construct: purchased DiscoveRx KINOMEscan (TRKA and CSF1R IC50 enzymes from Invitrogen)
Method: as §1, §2, §3, §4, §5, §6

[20] = molecular target: T20, HIPK2 (Homo sapiens, UniProt Q9H2X6); details: HIPK2, 100 nM; read-out: Percent Control
T20 construct: purchased DiscoveRx KINOMEscan (TRKA and CSF1R IC50 enzymes from Invitrogen)
Method: as §1, §2, §3, §4, §5, §6

[21] = molecular target: T21, FER (Homo sapiens, UniProt P16591); details: 100 nM, read-out: Percent Control
T21 construct: purchased DiscoveRx KINOMEscan (TRKA and CSF1R IC50 enzymes from Invitrogen)
Method: as §1, §2, §3, §4, §5, §6

[22] = molecular target: T22, CDK9 (Homo sapiens, UniProt P50750); details: CDK9, 100 nM; read-out: Percent Control
T22 construct: purchased DiscoveRx KINOMEscan (TRKA and CSF1R IC50 enzymes from Invitrogen)
Method: as §1, §2, §3, §4, §5, §6

[23] = molecular target: T23, YANK2 (Homo sapiens, UniProt Q9NY57); details: YANK2, 100 nM; read-out: Percent Control
T23 construct: purchased DiscoverX (outsourced KINOMEscan)
Method: as §1, §2, §3, §4, §5, §6

[24] = molecular target: T24, HCK (Homo sapiens, UniProt P08631); details: 100 nM
T24 construct: purchased DiscoveRx KINOMEscan (TRKA and CSF1R IC50 enzymes from Invitrogen)
Method: as §1, §2, §3, §4, §5, §6

[25] = molecular target: T25, AURKA (Homo sapiens, UniProt O14965); details: 100 nM, read-out: Percent Control
T25 construct: purchased DiscoveRx KINOMEscan (TRKA and CSF1R IC50 enzymes from Invitrogen)
Method: as §1, §2, §3, §4, §5, §6

[26] = molecular target: T26, EIF2AK1 (Homo sapiens, UniProt Q9BQI3); details: EIF2AK1, 100 nM; read-out: Percent Control
T26 construct: purchased DiscoveRx KINOMEscan (TRKA and CSF1R IC50 enzymes from Invitrogen)
Method: as §1, §2, §3, §4, §5, §6

[27] = molecular target: T27, FAK (Homo sapiens, UniProt Q05397); details: 100 nM, read-out: Percent Control
T27 construct: purchased DiscoveRx KINOMEscan (TRKA and CSF1R IC50 enzymes from Invitrogen)
Method: as §1, §2, §3, §4, §5, §6

[28] = molecular target: T28, IGF1R (Homo sapiens, UniProt P08069); details: 100 nM, read-out: Percent Control
T28 construct: purchased DiscoveRx KINOMEscan (TRKA and CSF1R IC50 enzymes from Invitrogen)
Method: as §1, §2, §3, §4, §5, §6

[29] = molecular target: T29, PIM1 (Homo sapiens, UniProt P11309); details: PIM1, 100 nM; read-out: Percent Control
T29 construct: purchased DiscoveRx KINOMEscan (TRKA and CSF1R IC50 enzymes from Invitrogen)
Method: as §1, §2, §3, §4, §5, §6

[30] = molecular target: T30, PLK4 (Homo sapiens, UniProt O00444); details: PLK4, 100 nM; read-out: Percent Control
T30 construct: purchased DiscoveRx KINOMEscan (TRKA and CSF1R IC50 enzymes from Invitrogen)
Method: as §1, §2, §3, §4, §5, §6

T12 sequence (P04629 33-796): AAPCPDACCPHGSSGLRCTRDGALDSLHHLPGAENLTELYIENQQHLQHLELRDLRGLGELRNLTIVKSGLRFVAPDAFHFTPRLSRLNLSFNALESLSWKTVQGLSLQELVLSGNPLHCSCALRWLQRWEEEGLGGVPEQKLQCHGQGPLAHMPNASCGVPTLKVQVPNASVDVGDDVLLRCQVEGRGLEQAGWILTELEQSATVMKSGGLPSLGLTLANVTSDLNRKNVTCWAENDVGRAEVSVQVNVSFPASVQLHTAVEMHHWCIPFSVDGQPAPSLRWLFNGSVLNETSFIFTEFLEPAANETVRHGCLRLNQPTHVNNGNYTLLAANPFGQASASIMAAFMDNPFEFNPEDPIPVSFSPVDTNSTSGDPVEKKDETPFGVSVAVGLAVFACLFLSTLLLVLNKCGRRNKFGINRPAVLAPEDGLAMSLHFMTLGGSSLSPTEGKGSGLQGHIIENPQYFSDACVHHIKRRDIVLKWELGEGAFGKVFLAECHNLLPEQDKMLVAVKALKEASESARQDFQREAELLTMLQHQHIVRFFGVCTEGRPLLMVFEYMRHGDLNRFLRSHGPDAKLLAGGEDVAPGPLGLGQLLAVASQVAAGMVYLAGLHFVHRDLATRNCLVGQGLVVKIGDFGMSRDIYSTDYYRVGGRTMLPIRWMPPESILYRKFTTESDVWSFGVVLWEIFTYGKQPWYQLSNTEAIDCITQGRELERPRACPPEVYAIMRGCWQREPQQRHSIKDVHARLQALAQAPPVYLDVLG
T24 sequence (P08631 whole entry): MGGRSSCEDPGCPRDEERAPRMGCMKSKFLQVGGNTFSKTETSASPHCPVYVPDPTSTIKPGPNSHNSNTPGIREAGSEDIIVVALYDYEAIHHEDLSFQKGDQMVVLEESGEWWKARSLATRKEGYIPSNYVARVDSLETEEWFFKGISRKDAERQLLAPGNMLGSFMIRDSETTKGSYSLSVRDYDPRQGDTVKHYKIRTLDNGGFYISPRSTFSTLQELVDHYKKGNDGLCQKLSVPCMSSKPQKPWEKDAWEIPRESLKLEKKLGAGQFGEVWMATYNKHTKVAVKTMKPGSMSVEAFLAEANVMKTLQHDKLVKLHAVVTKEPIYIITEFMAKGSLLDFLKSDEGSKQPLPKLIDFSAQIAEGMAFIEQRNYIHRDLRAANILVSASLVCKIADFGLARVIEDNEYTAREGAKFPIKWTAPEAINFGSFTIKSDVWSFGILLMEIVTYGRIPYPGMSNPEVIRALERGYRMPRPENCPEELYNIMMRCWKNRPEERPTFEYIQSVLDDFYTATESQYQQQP
T4 sequence (P42681 whole entry): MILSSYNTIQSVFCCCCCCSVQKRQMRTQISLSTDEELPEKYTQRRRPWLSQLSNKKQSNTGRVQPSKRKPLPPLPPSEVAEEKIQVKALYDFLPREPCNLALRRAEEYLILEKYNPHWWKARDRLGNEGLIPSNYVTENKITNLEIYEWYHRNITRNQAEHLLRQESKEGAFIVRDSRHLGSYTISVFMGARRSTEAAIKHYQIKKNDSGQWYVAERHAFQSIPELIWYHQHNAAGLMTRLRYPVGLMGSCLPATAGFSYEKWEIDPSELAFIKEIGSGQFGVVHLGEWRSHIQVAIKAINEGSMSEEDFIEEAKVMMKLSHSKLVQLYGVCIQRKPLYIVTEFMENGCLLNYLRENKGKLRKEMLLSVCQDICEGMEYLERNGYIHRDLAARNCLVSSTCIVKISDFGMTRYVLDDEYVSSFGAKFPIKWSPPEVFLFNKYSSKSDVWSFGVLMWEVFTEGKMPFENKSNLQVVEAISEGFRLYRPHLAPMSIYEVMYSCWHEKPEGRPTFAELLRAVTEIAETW
T11 sequence (P06241 whole entry): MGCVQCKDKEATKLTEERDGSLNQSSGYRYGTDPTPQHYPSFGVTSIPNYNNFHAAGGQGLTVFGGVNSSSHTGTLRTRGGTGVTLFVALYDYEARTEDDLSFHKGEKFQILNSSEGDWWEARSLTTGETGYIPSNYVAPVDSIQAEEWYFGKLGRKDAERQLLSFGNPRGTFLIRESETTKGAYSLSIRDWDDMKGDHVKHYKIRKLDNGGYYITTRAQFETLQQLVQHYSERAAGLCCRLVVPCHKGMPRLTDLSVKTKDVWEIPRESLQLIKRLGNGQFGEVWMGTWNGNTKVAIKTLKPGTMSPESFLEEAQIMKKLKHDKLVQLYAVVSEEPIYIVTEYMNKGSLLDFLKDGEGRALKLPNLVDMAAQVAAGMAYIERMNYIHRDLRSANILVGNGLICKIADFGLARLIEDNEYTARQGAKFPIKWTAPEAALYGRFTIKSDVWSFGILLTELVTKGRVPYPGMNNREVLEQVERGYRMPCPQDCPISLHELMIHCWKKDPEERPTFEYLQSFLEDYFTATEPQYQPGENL
T8 sequence (Q9H2G2 whole entry): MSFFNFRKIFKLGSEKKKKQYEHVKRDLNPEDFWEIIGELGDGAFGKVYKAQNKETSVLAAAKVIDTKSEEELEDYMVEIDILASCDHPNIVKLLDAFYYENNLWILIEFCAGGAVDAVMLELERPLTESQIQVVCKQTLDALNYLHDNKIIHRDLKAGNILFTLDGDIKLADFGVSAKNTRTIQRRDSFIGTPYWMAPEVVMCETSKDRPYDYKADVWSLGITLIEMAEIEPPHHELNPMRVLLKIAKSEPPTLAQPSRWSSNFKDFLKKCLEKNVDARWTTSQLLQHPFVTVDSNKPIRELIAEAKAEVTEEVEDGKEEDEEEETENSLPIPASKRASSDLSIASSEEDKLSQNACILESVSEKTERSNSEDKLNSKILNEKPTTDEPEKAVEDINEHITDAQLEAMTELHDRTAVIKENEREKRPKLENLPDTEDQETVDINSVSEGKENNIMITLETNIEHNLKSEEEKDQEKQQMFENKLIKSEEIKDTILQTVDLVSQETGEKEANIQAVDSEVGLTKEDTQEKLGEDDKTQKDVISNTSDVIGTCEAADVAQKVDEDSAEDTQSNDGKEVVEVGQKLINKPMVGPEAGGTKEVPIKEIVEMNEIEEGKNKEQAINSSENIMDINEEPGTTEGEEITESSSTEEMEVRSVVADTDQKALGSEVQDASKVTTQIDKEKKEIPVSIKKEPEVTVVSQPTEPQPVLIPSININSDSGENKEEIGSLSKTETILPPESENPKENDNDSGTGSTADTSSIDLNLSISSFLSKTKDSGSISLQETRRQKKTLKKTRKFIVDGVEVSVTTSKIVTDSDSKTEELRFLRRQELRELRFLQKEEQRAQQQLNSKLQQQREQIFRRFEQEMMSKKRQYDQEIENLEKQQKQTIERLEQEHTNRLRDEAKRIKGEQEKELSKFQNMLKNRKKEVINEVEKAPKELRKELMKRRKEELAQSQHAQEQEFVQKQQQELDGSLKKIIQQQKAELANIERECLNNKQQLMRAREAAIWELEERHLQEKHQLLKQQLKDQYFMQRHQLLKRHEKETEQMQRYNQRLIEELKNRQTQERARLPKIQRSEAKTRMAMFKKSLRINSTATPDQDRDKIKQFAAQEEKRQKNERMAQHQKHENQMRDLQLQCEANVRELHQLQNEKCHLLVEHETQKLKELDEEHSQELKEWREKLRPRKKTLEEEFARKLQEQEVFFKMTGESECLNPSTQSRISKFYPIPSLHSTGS
T22 sequence (P50750 whole entry): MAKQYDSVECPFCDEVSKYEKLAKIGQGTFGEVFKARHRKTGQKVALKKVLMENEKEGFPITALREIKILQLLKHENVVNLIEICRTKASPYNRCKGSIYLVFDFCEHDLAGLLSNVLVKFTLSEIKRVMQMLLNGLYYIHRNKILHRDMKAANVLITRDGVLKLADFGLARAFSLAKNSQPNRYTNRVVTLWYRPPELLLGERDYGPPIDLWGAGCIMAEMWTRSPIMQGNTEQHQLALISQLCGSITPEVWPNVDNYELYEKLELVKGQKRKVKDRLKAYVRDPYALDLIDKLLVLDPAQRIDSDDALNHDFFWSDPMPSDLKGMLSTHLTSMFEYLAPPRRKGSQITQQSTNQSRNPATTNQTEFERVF
T3 sequence (P31749 whole entry): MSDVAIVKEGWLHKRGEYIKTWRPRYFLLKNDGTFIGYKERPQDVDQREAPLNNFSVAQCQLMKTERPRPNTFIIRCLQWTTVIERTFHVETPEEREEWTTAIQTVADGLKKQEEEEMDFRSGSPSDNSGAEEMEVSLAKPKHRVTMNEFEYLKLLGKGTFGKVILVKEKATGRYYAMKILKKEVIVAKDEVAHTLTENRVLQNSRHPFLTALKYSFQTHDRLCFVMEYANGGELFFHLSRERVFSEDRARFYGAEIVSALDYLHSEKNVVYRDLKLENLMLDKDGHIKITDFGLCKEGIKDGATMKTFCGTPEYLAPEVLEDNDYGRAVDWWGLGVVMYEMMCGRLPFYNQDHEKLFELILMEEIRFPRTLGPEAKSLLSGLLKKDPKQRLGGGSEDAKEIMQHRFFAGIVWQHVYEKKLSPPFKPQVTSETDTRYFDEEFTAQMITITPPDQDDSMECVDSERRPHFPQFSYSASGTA
T9 sequence (P23443 whole entry): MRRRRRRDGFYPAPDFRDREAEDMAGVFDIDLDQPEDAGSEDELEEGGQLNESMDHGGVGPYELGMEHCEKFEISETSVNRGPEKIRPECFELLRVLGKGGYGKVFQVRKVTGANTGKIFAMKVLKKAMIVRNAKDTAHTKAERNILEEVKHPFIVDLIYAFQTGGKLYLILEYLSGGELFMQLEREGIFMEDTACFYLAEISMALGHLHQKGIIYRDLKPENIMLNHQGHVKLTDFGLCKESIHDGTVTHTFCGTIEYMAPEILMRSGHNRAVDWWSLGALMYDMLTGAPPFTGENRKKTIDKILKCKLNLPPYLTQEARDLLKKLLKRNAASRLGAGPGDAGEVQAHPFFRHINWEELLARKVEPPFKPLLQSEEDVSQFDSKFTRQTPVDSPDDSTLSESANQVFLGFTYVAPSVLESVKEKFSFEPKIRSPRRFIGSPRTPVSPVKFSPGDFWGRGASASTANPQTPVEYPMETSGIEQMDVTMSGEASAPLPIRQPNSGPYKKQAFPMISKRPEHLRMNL

With `CC(C)(C)c1cc(NC(=O)Cc2ccc(-n3cnc4cc(-c5ccc(S(C)(=O)=O)cc5)ccc43)cc2)no1` [NPA101.3] the remaining binding at 0.1 µM [1] was 100%, the remaining binding at 0.1 µM [2] was 100% and the remaining binding at 0.1 µM [3] was 100%. The remaining binding at 0.1 µM [4] was 85%, the remaining binding at 0.1 µM [5] was 13% and the remaining binding at 0.1 µM [6] was 100%. It also gave a remaining binding at 0.1 µM [7] of 95%, a remaining binding at 0.1 µM [8] of 35% and a remaining binding at 0.1 µM [9] of 100%. The remaining binding at 0.1 µM [10] was 100%, the remaining binding at 0.1 µM [11] was 27% and the “binding (% bound)” value [12] was > 90 % bound. It also gave a remaining binding at 0.1 µM ([12]; TRKA, read-out: Percent Control) of 1.3%, a remaining binding at 0.1 µM [13] of 100% and a remaining binding at 0.1 µM [14] of 100%. It also gave a remaining binding at 0.1 µM [15] of 89%, a remaining binding at 0.1 µM [16] of 86% and a remaining binding at 0.1 µM [17] of 100%. The remaining binding at 0.1 µM [18] was 95%, the remaining binding at 0.1 µM [19] was 100% and the remaining binding at 0.1 µM [20] was 98%. For the same compound, the remaining binding at 0.1 µM [21] was 96%, the remaining binding at 0.1 µM [22] was 100% and the remaining binding at 0.1 µM [23] was 98%. The “binding (% bound)” value [24] was > 90 % bound, the remaining binding at 0.1 µM ([24]; HCK, read-out: Percent Control) was 6.5% and the remaining binding at 0.1 µM [25] was 100%. For the same compound, the remaining binding at 0.1 µM [26] was 99%, the remaining binding at 0.1 µM [27] was 86% and the remaining binding at 0.1 µM [28] was 100%. The remaining binding at 0.1 µM [29] was 94% and the remaining binding at 0.1 µM [30] was 100%.
